In brackets after ≈: the same amount, converted by molar mass. Several values for one entry are separate records, joined by “and”; a condition that tells them apart may be missing. Equal values may be shown once. Read-outs that look alike come from different tables or passages of the source.
Experiments:
S. aureus Newman [1] = assay: MIC in presence of fetal bovine serum (FBS); assay type: cell-based; details: for MIC: Staphylococcus aureus, NEWMAN, read-out: MIC against S. aureus Newman
Description: (§1) Minimal inhibitory concentration (MIC) of the compounds in the present invention was determined using broth microdilution performed according to EUCAST guidelines (ISO20776-1:2019). S. aureus ATCC29213 and E. faecalis ATCC29212 served as quality control strains.

E. faecium DSM-20477 = assay: MIC testing (broth microdilution, EUCAST); assay type: cell-based; details: Enterococcus faecium, DSM20477, E. faecium DSM-20477
Description: as §1

S. aureus Newman [2] = assay: MIC testing (broth microdilution, EUCAST); assay type: cell-based
Description: as §1

E. faecalis ATCC-29212 = assay: MIC testing (broth microdilution, EUCAST); assay type: cell-based; details: Enterococcus faecalis, ATCC29212, E. faecalis ATCC-29212
Description: as §1

S. epidermidis DSM-28765 = assay: MIC testing (broth microdilution, EUCAST); assay type: cell-based; details: Staphylococcus epidermidis, DSM28765, S. epidermidis DSM-28765; read-out: MIC S. epiderm.
Description: as §1

[3] = tested on: S. aureus N315 (methicillin-resistant, MRSA); assay: MIC testing (broth microdilution, EUCAST); assay type: cell-based; details: Staphylococcus aureus, MRSA
Description: as §1

[4] = tested on: E. faecium DSM-17050 (vancomycin-resistant, VRE); assay: MIC testing (broth microdilution, EUCAST); assay type: cell-based; details: Enterococcus faecium
Description: as §1

[5] = Activity compared with chlorotonil A (general statement); details: vs chlorotonil A
[6] = Plasma protein binding (PPB); assay type: in vitro ADME, rat
Description: (§2) Complementing the toxicity profiling, ADME properties of the lead dehalogenil were determined. This had not been possible for the first generation frontrunner ChB1-Epo2 or the natural product ChA because of their poor limit of detection. […] Across species (mouse, rat, human), metabolic stability is high while plasma stability is moderate. Besides, no hemolysis and no inhibition of the metabolically important enzyme CYP3A4 was observed by both dehalogenil and ChA. Plasma protein binding (PPB) is >99.4% in all species.

P. berghei = P. berghei parasite load in mice; assay type: in vivo, mouse
S. aureus USA300LAC = assay: S. aureus blood infection (sepsis) model; assay type: in vivo, mouse (CD-1); details: for survival: BID, until 3 days post infection
Description: Dehalogenil was further tested in a Staphylococcus blood infection (sepsis) model, alongside linezolid as reference compound. Mice were infected using S. aureus USA300LAC (10^8 CFU/animal) and subsequently treated with a daily total of 5, 10 or 25 mg/kg SC dehalogenil, split into two doses (8 h interval, BID regimen) until 3 days post infection.
Mice were infected intravenously using S. aureus USA300LAC (10^8 CFU/mice). Compounds were administered twice daily starting day 0 until day 3, with the daily total dose indicated. Curves were compared via Mantel-Cox test (Prism), with ***: p<0.001 and **: p<0.01.

zebrafish larvae = assay: Toxicity in zebrafish larvae (MTC / IC50); assay type: in vivo
Description: For toxicity screening, zebrafish larvae were exposed three days post fertilization and monitored for 48 h until five days post fertilization. All malformations and pathophysiological phenotypes were noted and used to determine the inhibitory concentration (IC50) of the respective derivative against zebrafish larvae. The selectivity index (SI) was then calculated using the IC50 and the MIC of either S. aureus or P. falciparum 3D7.

Metabolic stability = assay type: in vitro ADME; details: for microsomal CLint: liver microsomes, read-out: microsomal clearance
Description: as §2

[7] = literature product; cited from earlier work
S. aureus = assay: Murine foreign body (catheter) infection model; assay type: in vivo, mouse
Description: In a murine model, infected catheter tubings were implanted under the rodent skin followed by subcutaneous treatment (once per day with 25 mg/kg for six days).
The infection was established using a bacterial inoculum of 1×10^4 colony-forming units (CFU) injected into the lumen of the implanted peripheral venous catheter tubing fragment. Dehalogenil (25 mg/kg) was administered s.c. once per day, starting at 3 h post infection. Linezolid (Zyvoxid, Pfizer) was used as a reference antibiotic. Six days post infection, mice were euthanized, edema sizes around the implanted catheter fragment determined (c), and the catheter fragments and surrounding tissues were explanted. Bacterial loads from catheter detached biofilms (a) and in surrounding tissue homogenates (b) were determined by CFU counting. The data represent the value of every individual animal (symbols) and the median (horizontal lines). […], **p<0.01, ***p<0.001 (Kruskal-Wallis tests followed by Dunn's post hoc test).

[8] = In vivo PK after peroral administration (soy oil); set-up: species or system mouse; details: for half-life / AUC(0-t) / Cmax / Tmax: mouse, plasma; for half-life: read-out: t1/2z (converted)
Description: Peroral administration was compared between dehalogenil and ChB1-Epo2. […] Clearance was slow (t1/2z 5.5 and 10 h for 10 and 50 mg/kg, respectively) but considerably higher than for ChB1-Epo2.

[9] = 25 mg/kg SC once per day, six days
[10] = mice, oral, soy oil, vs ChB1-Epo2
[11] = po, mice, 10 mg/kg, mean (n = 3)
[12] = po, mice, 50 mg/kg, mean (n = 3)

Q: For `CC1=CC(C)C2C(C=CC3C(C)C=CC=CC(C)OC(=O)C(C)C(=O)CC(=O)C32)C1` (stereo not drawn) [dehalogenil], which MIC (S. aureus Newman [1]; MHB2 + 5% FBS) is on record?
A: The MIC was 2 µg/mL.

Q: What about the MIC (S. aureus Newman [1]; MHB2 + 10% FBS) of the same compound?
A: The MIC was 4 µg/mL.

Q: What about the MIC (S. aureus Newman [1]; MHB2 + 20% FBS) of the same compound?
A: Its MIC is 4 µg/mL.

Q: And the MIC (S. aureus Newman [1]; MHB2 + 30% FBS)?
A: The MIC was 8 µg/mL.

Q: What about the MIC (S. aureus Newman [1]; MHB2 + 40% FBS) of the same compound?
A: The MIC was 8 µg/mL.

Q: What about the MIC (S. aureus Newman [1]; MHB2 + 50% FBS) of the same compound?
A: The MIC was greater than 8 µg/mL.

Q: And the MIC (S. aureus Newman [1]; MHB2, no FBS)?
A: Its MIC is 0.0625 µg/mL.

Q: What about the “Activity in presence of FBS” value (S. aureus Newman [1]; above 20% FBS) of the same compound?
A: The value was “remained active above 20% FBS”.

Q: What about the MIC (E. faecium DSM-20477) of the same compound?
A: Its MIC is 0.025 µg/mL (≈ 0.0609 µM).

Q: And the “MIC S. aureus” value (S. aureus Newman [2])?
A: The value was 0.05 µg/mL (≈ 0.122 µM).

Q: And the MIC (E. faecalis ATCC-29212)?
A: Its MIC is 0.1 µg/mL (≈ 0.244 µM).

Q: What about the MIC (S. epidermidis DSM-28765) of the same compound?
A: The MIC was 0.2 µg/mL (≈ 0.487 µM).

Q: What about the MIC [3] of the same compound?
A: Its MIC is 0.05 µg/mL (≈ 0.122 µM).

Q: And the MIC [4]?
A: The MIC was 0.1 µg/mL (≈ 0.244 µM).

Q: What about the “activity compared to chlorotonil A” value [5] of the same compound?
A: The value was “activity similar to chlorotonil A”.

Q: What about the fraction unbound ([6]; plasma, all species: rat) of the same compound?
A: The fraction unbound was less than 0.006.

Q: What about the plasma protein binding ([6]; rat) of the same compound?
A: Its plasma protein binding is greater than 99.4%.

Q: And the “reduction of P. berghei parasite load” value (P. berghei)?
A: Its value is greater than 99%.

Q: What about the survival (S. aureus USA300LAC; 10 mg/kg daily total SC) of the same compound?
A: The survival was 80%.

Q: What about the survival (S. aureus USA300LAC; 25 mg/kg daily total SC) of the same compound?
A: The survival was 90%.

Q: What about the “survival rates compared to linezolid” value (S. aureus USA300LAC; 10 and 25 mg/kg SC vs linezolid 60 mg/kg) of the same compound?
A: Its value is “increased survival rates comparable to a higher dose of linezolid”.

Q: And the “toxic effects in zebrafish” value (zebrafish larvae; 5-10 μg/mL)?
A: The value was “no toxic effects”.

Q: What about the “IC50 in zebrafish larvae” value (zebrafish larvae; exposed 3 days post fertilization, monitored 48 h) of the same compound?
A: The value was 27.4 µM.

Q: What about the “Selectivity Index S. aureus” value (zebrafish larvae; zebrafish IC50 / MIC S. aureus Newman) of the same compound?
A: The value was 224.8.

Q: What about the “Selectivity Index P. falc 3D7” value (zebrafish larvae; zebrafish IC50 vs P. falciparum 3D7) of the same compound?
A: The value was 5479.6.

Q: What about the metabolic stability (Metabolic stability; human) of the same compound?
A: The metabolic stability was “high”.

Q: What about the microsomal CLint (Metabolic stability; human) of the same compound?
A: The microsomal CLint was 6.4 µL/min/mg.

Q: And the metabolic stability (Metabolic stability; mouse)?
A: The metabolic stability was “high”.

Q: What about the microsomal CLint (Metabolic stability; mouse) of the same compound?
A: The microsomal CLint was 6.4 µL/min/mg.

Q: What about the metabolic stability (Metabolic stability; rat) of the same compound?
A: Its metabolic stability is “high”.

Q: What about the microsomal CLint (Metabolic stability; rat) of the same compound?
A: The microsomal CLint was 14 µL/min/mg.

Q: And the “activity described in the literature” value [7]?
A: The value was “inactive”.

Q: What about the “reduction in bacterial loads in the tissues surrounding the catheter fragments” value (S. aureus; [9]) of the same compound?
A: The value was > 3 log10 and 3.24 log10.

Q: What about the “reduction in bacterial loads on the catheter fragments” value (S. aureus; [9]) of the same compound?
A: The value was > 3 log10 and 3.85 log10.

Q: And the “bacterial load at the site of infection and on the implant” value (S. aureus; 6×25 mg/kg SC)?
A: The value was “significantly reducing bacterial loads”.

Q: What about the tz ([8]; mice, 10 mg/kg, p.o., mean (n = 3)) of the same compound?
A: The tz was 24 h.

Q: And the tz ([8]; mice, 50 mg/kg, p.o., mean (n = 3))?
A: Its tz is 24 h.

Q: What about the “AUC0-tz compared to ChB1-Epo2” value [8, 10] of the same compound?
A: The value was “ca. six-fold higher”.

Q: What about the “cmax compared to ChB1-Epo2” value [8, 10] of the same compound?
A: Its value is “ca. four-fold higher”.

Q: And the Clearance ([8]; mice, po, soy oil)?
A: The Clearance was “slow”.

Q: And the half-life ([8]; po, 10 mg/kg, mice, 10 mg/kg po, soy oil)?
A: The half-life was 5.5 h.

Q: And the half-life ([8]; po, 10 mg/kg, mice, 10 mg/kg, p.o., mean (n = 3))?
A: The half-life was 5.5 h.

Q: What about the half-life ([8]; po, 50 mg/kg, mice, 50 mg/kg po, soy oil) of the same compound?
A: Its half-life is 10 h.

Q: What about the half-life ([8]; po, 50 mg/kg, mice, 50 mg/kg, p.o., mean (n = 3)) of the same compound?
A: Its half-life is 10.2 h.

Q: And the AUC(0-t) [8, 11]?
A: The AUC(0-t) was 3020 ng·h/mL.

Q: And the Cmax [8, 11]?
A: Its Cmax is 261 ng/mL.

Q: What about the Tmax [8, 11] of the same compound?
A: The Tmax was 3 h.

Q: And the AUC(0-t) [8, 12]?
A: Its AUC(0-t) is 8360 ng·h/mL.

Q: And the Cmax [8, 12]?
A: The Cmax was 579 ng/mL.

Q: And the Tmax [8, 12]?
A: The Tmax was 3 h.

Q: What about the higher plasma levels ([8]; rodents, comparator chlorotonil B1-Epo2 (implied)) of the same compound?
A: Its higher plasma levels is 3 fold.

Reference: patent US20260335277A1, “CHLOROTONIL DERIVATIVES” (priority 2023, published 2026)
